For experiment [1], the target named is MERS-CoV 3CLpro (Middle East respiratory syndrome-related coronavirus, UniProt K9N7C7). The experiment in a line: biochemical.
Experiment [2] has as its target SARS-CoV 3CLpro (Severe acute respiratory syndrome coronavirus, UniProt P0C6X7). The experiment in a line: biochemical.
The target in experiment [3] is HCoV-229E 3CLpro (Human coronavirus 229E, UniProt P0C6X1). The experiment in a line: HCoV-229E 3CLpro inhibition assay (FRET). Format: biochemical.
The target of experiment [4] is SARS-CoV-2 3CLpro (Severe acute respiratory syndrome coronavirus 2, UniProt P0DTD1). The experiment is described as follows: biochemical.

Our source for the IC50 values is patent US20250059171A1 (Hoffmann-La Roche Inc., priority 2021, published 2025).

pIC50: −log10 of the molar value.

Sequence of MERS-CoV 3CLpro (K9N7C7 3248-3553): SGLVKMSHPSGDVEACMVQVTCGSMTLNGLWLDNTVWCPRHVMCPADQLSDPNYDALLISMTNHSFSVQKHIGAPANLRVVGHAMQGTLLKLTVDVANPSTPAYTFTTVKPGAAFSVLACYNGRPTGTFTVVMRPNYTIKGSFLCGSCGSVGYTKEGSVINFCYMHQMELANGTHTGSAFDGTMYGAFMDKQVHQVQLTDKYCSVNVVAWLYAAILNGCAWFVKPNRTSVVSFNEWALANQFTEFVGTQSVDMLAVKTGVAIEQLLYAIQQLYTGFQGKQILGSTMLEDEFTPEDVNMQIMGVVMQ
Sequence of HCoV-229E 3CLpro (P0C6X1 2966-3267): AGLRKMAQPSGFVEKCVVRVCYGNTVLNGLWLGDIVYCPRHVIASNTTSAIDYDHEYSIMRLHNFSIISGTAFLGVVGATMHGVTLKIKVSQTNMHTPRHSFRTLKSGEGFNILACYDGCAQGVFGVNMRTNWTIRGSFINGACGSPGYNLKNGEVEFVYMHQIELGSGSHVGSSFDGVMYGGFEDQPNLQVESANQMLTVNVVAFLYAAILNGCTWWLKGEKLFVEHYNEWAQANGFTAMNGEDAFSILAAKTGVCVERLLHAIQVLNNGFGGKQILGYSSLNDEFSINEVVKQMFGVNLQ

Take `CC(C)(C)[C@H](NC(=O)C(F)(F)F)C(=O)N1C[C@H]2[C@@H]([C@H]1C(=O)NN(Cc1cc[nH]n1)C(=O)[C@H](F)Cl)C2(C)C` [Example 10, N-[(1S)-1-[(1R,2S,5S)-2-[[[(2R)-2-chloro-2-fluoro-acetyl]-(1H-pyrazol-3-ylmethyl)amino]carbamoyl]-6,6-dimethyl-3-azabicyclo[3.1.0]hexane-3-carbonyl]-2,2-dimethyl-propyl]-2,2,2-trifluoro-acetamide]: the pIC50 is 5.52 in experiment [1], 6.43 in experiment [2], 5.91 in experiment [3] and 7.68 in experiment [4].

For `CC1(C)[C@@H]2[C@@H](C(=O)NN(C[C@@H]3CCNC3=O)C(=O)[C@H](F)Cl)N(C(=O)/C=C/c3cc(F)cc(F)c3)C[C@@H]21` [Example 181, (1R,2S,5S)—N′-[(2R)-2-chloro-2-fluoro-acetyl]-3-[(E)-3-(3,5-difluorophenyl)prop-2-enoyl]-6,6-dimethyl-N′—[[(3S)-2-oxopyrrolidin-3-yl]methyl]-3-azabicyclo[3.1.0]hexane-2-carbohydrazide], the pIC50 in experiment [1] is 6.44; in experiment [2], 6.60; in experiment [3], 7.32; in experiment [4], 6.68.

Regarding `CCC(C)(C)[C@H](NC(=O)C(F)F)C(=O)N1C[C@@H]2CCC[C@@H]2[C@H]1C(=O)NN(C[C@@H]1CCCNC1=O)C(=O)[C@H](F)Cl` [Example 175, N-[(1S)-1-[(3S,3aS,6aR)-3-[[[(2R)-2-chloro-2-fluoro-acetyl]-[[(3S)-2-oxo-3-piperidyl]methyl]amino]carbamoyl]-3,3a,4,5,6,6a-hexahydro-1H-cyclopenta[c]pyrrole-2-carbonyl]-2,2-dimethyl-butyl]-2,2-difluoro-acetamide], the pIC50 is 6.98 in experiment [1], 7.82 in experiment [2], 7.43 in experiment [3] and 8.00 in experiment [4].

Turning to `CCC(CC)[C@H](NC(=O)C(F)F)C(=O)N1C[C@H]2[C@@H]([C@H]1C(=O)NN(C[C@@H]1CCCNC1=O)C(=O)[C@H](F)Cl)C2(C)C` [Example 173, N-[(1S)-1-[(1R,2S,5S)-2-[[[(2R)-2-chloro-2-fluoro-acetyl]-[[(3S)-2-oxo-3-piperidyl]methyl]amino]carbamoyl]-6,6-dimethyl-3-azabicyclo[3.1.0]hexane-3-carbonyl]-2-ethyl-butyl]-2,2-difluoro-acetamide], the pIC50 in experiment [1] is 6.76; in experiment [2] it was 7.74; in experiment [3], 7.57; in experiment [4] it was 7.89.

Turning to `CC(C)(C)[C@H](NC(=O)[C@@H]1CC1(F)F)C(=O)N1C[C@@H]2CCC[C@@H]2[C@H]1C(=O)NN(C[C@@H]1CCCNC1=O)C(=O)[C@@H](F)Cl` [Example 197, (1S)—N-[(1S)-1-[(3S,3aS,6aR)-3-[[[(2S)-2-chloro-2-fluoro-acetyl]-[[(3S)-2-oxo-3-piperidyl]methyl]amino]carbamoyl]-3,3a,4,5,6,6a-hexahydro-1H-cyclopenta[c]pyrrole-2-carbonyl]-2,2-dimethyl-propyl]-2,2-difluoro-cyclopropanecarboxamide], the pIC50 in experiment [1] is 7.03; in experiment [2], 7.89; in experiment [3], 7.19; in experiment [4] it was 7.96.

On to `CC[C@H](C)[C@H](NC(=O)C(C)C)C(=O)N1C[C@H]2[C@@H]([C@H]1C(=O)NN(C[C@@H]1CCNC1=O)C(=O)[C@@H](F)Cl)C2(C)C` [Example 110, N-[(1S,2S)-1-[(1R,2S,5S)-2-[[[(2S)-2-chloro-2-fluoro-acetyl]-[[(3S)-2-oxopyrrolidin-3-yl]methyl]amino]carbamoyl]-6,6-dimethyl-3-azabicyclo[3.1.0]hexane-3-carbonyl]-2-methyl-butyl]-2-methyl-propanamide], for which the pIC50 was 7.02 in experiment [1], 7.48 in experiment [2], 7.43 in experiment [3] and 7.62 in experiment [4].

`CC(C)C(=O)N[C@H](C(=O)N1C[C@H]2[C@@H]([C@H]1C(=O)NN(C[C@@H]1CCNC1=O)C(=O)[C@H](F)Cl)C2(C)C)C(C)(C)C` [Example 13, N-[(1S)-1-[(1R,2S,5S)-2-[[[(2R)-2-chloro-2-fluoro-acetyl]-[[(3S)-2-oxopyrrolidin-3-yl]methyl]amino]carbamoyl]-6,6-dimethyl-3-azabicyclo[3.1.0]hexane-3-carbonyl]-2,2-dimethyl-propyl]-2-methyl-propanamide]: the negative logarithm of the IC50 (pIC50) in experiment [1] is 7.03; in experiment [2] it was 7.85; in experiment [3], 7.62; in experiment [4], 8.05.

Regarding `CC[C@H](C)[C@H](NC(=O)C(C)C)C(=O)N1C[C@H]2[C@@H]([C@H]1C(=O)NN(C[C@@H]1CCNC1=O)C(=O)[C@H](F)Cl)C2(C)C` [Example 54, N-[(1S,2S)-1-[(1R,2S,5S)-2-[[[(2R)-2-chloro-2-fluoro-acetyl]-[[(3S)-2-oxopyrrolidin-3-yl]methyl]amino]carbamoyl]-6,6-dimethyl-3-azabicyclo[3.1.0]hexane-3-carbonyl]-2-methyl-butyl]-2-methyl-propanamide], the pIC50 in experiment [1] was 7.25; in experiment [2], 7.92; in experiment [3], 7.62; in experiment [4], 8.05.

As to `CC(C)(C)[C@H](NC(=O)C1(F)CC1)C(=O)N1C[C@@H]2CCC[C@@H]2[C@H]1C(=O)NN(C[C@@H]1CCNC1=O)C(=O)[C@H](F)Cl` [Example 82, N-[(1S)-1-[(3S,3aS,6aR)-3-[[[(2R)-2-chloro-2-fluoro-acetyl]-[[(3S)-2-oxopyrrolidin-3-yl]methyl]amino]carbamoyl]-3,3a,4,5,6,6a-hexahydro-1H-cyclopenta[c]pyrrole-2-carbonyl]-2,2-dimethyl-propyl]-1-fluoro-cyclopropanecarboxamide], the pIC50 in experiment [1] was 7.08; in experiment [2], 7.92; in experiment [3] it was 7.48; in experiment [4], 8.10.

Turning to `CC[C@H](C)[C@H](NC(C)=O)C(=O)N1C[C@@H]2CCC[C@@H]2[C@H]1C(=O)NN(C[C@@H]1CCNC1=O)C(=O)[C@H](F)Cl` [Example 81, N-[(1S,2S)-1-[(3S,3aS,6aR)-3-[[[(2R)-2-chloro-2-fluoro-acetyl]-[[(3S)-2-oxopyrrolidin-3-yl]methyl]amino]carbamoyl]-3,3a,4,5,6,6a-hexahydro-1H-cyclopenta[c]pyrrole-2-carbonyl]-2-methyl-butyl]acetamide], the pIC50 in experiment [1] is 7.03; in experiment [2], 7.82; in experiment [3], 7.35; in experiment [4], 8.05.

Take `CCC(CC)[C@H](NC(=O)C(C)F)C(=O)N1CC(C)(C)C[C@H]1C(=O)NN(C[C@@H]1CCNC1=O)C(=O)[C@H](F)Cl` (mixture of isomers) [Example 137, Rac-2-fluoro-N-[(1S)-2-ethyl-1-[(2S)-4,4-dimethyl-2-[[[(2R)-2-chloro-2-fluoro-acetyl]-[[(3S)-2-oxopyrrolidin-3-yl]methyl]amino]carbamoyl]pyrrolidine-1-carbonyl]butyl]propanamide]: the pIC50 in experiment [1] is 6.72; in experiment [2], 7.57; in experiment [3], 7.34; in experiment [4] it was 7.74.

With `CC[C@H](C)[C@H](NC(=O)[C@@H](F)Cl)C(=O)N1CC(C)(C)C[C@H]1C(=O)NN(C[C@@H]1CCNC1=O)C(=O)[C@@H](F)Cl` [Example 187, (2S)-2-chloro-N-[(1S,2S)-1-[(2S)-2-[[[(2S)-2-chloro-2-fluoro-acetyl]-[[(3S)-2-oxopyrrolidin-3-yl]methyl]amino]carbamoyl]-4,4-dimethyl-pyrrolidine-1-carbonyl]-2-methyl-butyl]-2-fluoro-acetamide], the pIC50 in experiment [1] is 6.78; in experiment [2], 7.37; in experiment [3], 7.44; in experiment [4], 7.62.

As for `CC(C)(C)[C@H](NC(=O)[C@@H]1CC1(F)F)C(=O)N1C[C@H]2[C@@H]([C@H]1C(=O)NN(C[C@@H]1CCNC1=O)C(=O)[C@H](F)Cl)C2(C)C` [Example 92, (1S)—N-[(1S)-1-[(1R,2S,5S)-2-[[[(2R)-2-chloro-2-fluoro-acetyl]-[[(3S)-2-oxopyrrolidin-3-yl]methyl]amino]carbamoyl]-6,6-dimethyl-3-azabicyclo[3.1.0]hexane-3-carbonyl]-2,2-dimethyl-propyl]-2,2-difluoro-cyclopropanecarboxamide], the negative-log IC50 (pIC50) was 7.24 in experiment [1], 7.74 in experiment [2], 7.64 in experiment [3] and 8.10 in experiment [4].

Broadly, the pIC50 is the IC50 on a negative log10 scale, so that one unit is a factor of ten. A high value points to a small IC50.
